{"source": "patent US7041701B2", "about": "“Triterpenoid derivatives” (Univerzita Palackeho V Olomouci, priority 2000, dated 2006)", "key": {"[1]": {"system": "CEM-DNR 1/C2 human T-lymphoblastic leukemia, daunorubicin resistant", "assay": "MTT cytotoxicity assay, CEM-DNR 1/C2", "format": "cell-based", "conditions": "72 hours, read-out: TCS50", "text": "(§1) One of the parameters used as the basis for colorimetric assays is the metabolic activity of viable cells. For example, a microtiter assay which uses the tetrazolium salt MTT is now widely used to quantitate cell proliferation and cytotoxicity [Hajdúch M, Mihál V, Minarík J, Fáber E, Safárová M, Weigl E, Antálek P.: Cytotechnology, 1996, 19, 243–245]. For instance, this assay is used in drug screening programs and in chemosensitivity testing. Because tetrazolium salts are cleaved only by metabolically active cells, these assays exclusively detect viable cells. In the case of the MTT assay, yellow soluble tetrazolium salt is reduced to a coloured water-insoluble formazan salt. After it is solubilized, the formazan formed can easily and rapidly be quantified in a conventional ELISA plate reader at 570 nm (maximum absorbancy). The quantity of reduced formazan corresponds to the number of vital cells in the culture. […]\n(§2) The cell suspensions that were prepared and diluted according to the particular cell type and the expected target cell density (2,500–30,000 cells per well based on cell growth characteristics) were added by pipette (80 μl) into 96/well microtiter plates. […] Usually, test compounds were evaluated at six 4-fold dilutions. […] The tumour cell survival (TCS) was calculated using the following equitation: TCS=(ODdrug exposed well/mean ODcontrol wells)×100%. […]"}, "[2]": {"system": "CEM-DNR bulk human T-lymphoblastic leukemia, daunorubicin resistant", "assay": "MTT cytotoxicity assay, CEM-DNR bulk", "format": "cell-based", "conditions": "72 hours, read-out: TCS50", "text": "as §1, §2"}, "[3]": {"system": "HepG2 human hepatocellular carcinoma", "assay": "MTT cytotoxicity assay, HepG2", "format": "cell-based", "conditions": "72 hours, read-out: TCS50", "text": "as §1, §2"}, "[4]": {"system": "K562-GEM human promyelocytic leukemia, gemcitabin resistant", "assay": "MTT cytotoxicity assay, K562-GEM", "format": "cell-based", "conditions": "72 hours, read-out: TCS50", "text": "as §1, §2"}, "[5]": {"system": "K562 human promyelocytic leukemia", "assay": "MTT cytotoxicity assay, K562", "format": "cell-based", "conditions": "72 hours, read-out: TCS50", "text": "as §1, §2"}, "[6]": {"system": "CEM-VCR 3/D5 human T-lymphoblastic leukemia, vincristin resistant", "assay": "MTT cytotoxicity assay, CEM-VCR 3/D5", "format": "cell-based", "conditions": "72 hours, read-out: TCS50", "text": "as §1, §2"}, "[7]": {"system": "DU145 human prostate cancer, androgen independent, Rb−/−", "assay": "MTT cytotoxicity assay, DU145", "format": "cell-based", "conditions": "72 hours, read-out: TCS50", "text": "as §1, §2"}, "[8]": {"system": "K562-CdA human promyelocytic leukemia, cladrubin resistant", "assay": "MTT cytotoxicity assay, K562-CdA", "format": "cell-based", "conditions": "72 hours, read-out: TCS50", "text": "as §1, §2"}, "H3 histone (Lys9)": {"system": "H3 histone (Lys9)", "assay": "Histone acetylation, Western blot in CEM cells", "format": "cell-based, human", "experimental": "CEM cells were cultured in Dulbeco's modified essential medium with 4.5 g dextrose/l, 10% of foetal calf serum, 2 mM glutamine, 100 U/ml penicillin and 100 μg/ml streptomycin with/without the indicated concentrations of HDAC inhibitor TSA or I.3. At selected time points, cells were harvested, washed in ice cold Hank's balanced salt solution and solubilized on ice using SDS-PAGE sample buffer containing protease and phosphatase inhibitors (10 μg/ml of leupeptin, 10 μg/ml of aprotinin, 10 μg/ml of soybean trypsin inhibitor, 100 μmol of benzamide, 1 mM of sodium vanadate, 1 mM of NaF, 1 mM of phenylphosphate) and boiled immediately.\nTotal cellular proteins (100 μg/well) were separated on SDS-PAGE electrophoresis, blotted on polyvinyldifluoride membranes and acetylated histone was detected using a anti-acetyl(Lys9)-histone H3 rabbit polyclonal antibody (Cell Signalling Technology, Beverly, Mass.; Cat# 9671L) and visualized by chemilumniuscence (ECL-Western Blotting System, Amersham). Details of the Western blot technique are described in Ausubel, F. M., Brent, R, Kingston, R. E., Moore, D. D., Seidman, J. G., Smith, J. A., Struhl, K. (Eds): Short Protocols in Molecular. Biology, 2nd edition, John Wiley & Sons, New York, Chichester, Brisbane, Toronto, Singapore, 1992, page 10–33–10–35."}, "[9]": {"system": "A549 human lung adenocarcinoma", "assay": "MTT cytotoxicity assay, A549", "format": "cell-based", "conditions": "72 hours, read-out: TCS50", "text": "as §1, §2"}}, "note": "pIC50: −log10 of the molar value."}
{"smiles": "CC(=O)OC[C@@]1(C(=O)O)CC[C@]2(C)[C@H](CC[C@@H]3[C@@]4(C)CC[C@H](OC(C)=O)C(C)(C)[C@@H]4CC[C@]32C)C1=O", "note": "[I.3, 3β,28-diacetoxy-18-oxo-19,20,21,29,30-pentanorlupan-22-oic acid]", "values": [{"measurement": "pIC50", "setting": "[1]", "value": 6.22}, {"measurement": "pIC50", "setting": "[2]", "value": 5.96}, {"measurement": "pIC50", "setting": "[3]", "value": 5.77}, {"measurement": "pIC50", "setting": "[4]", "value": 6.05}, {"measurement": "pIC50", "setting": "[5]", "value": 6.70}, {"measurement": "pIC50", "setting": "[6]", "value": 5.54}, {"measurement": "pIC50", "setting": "[7]", "value": 6.10}, {"measurement": "pIC50", "setting": "[8]", "value": 6.52}, {"measurement": "time points showing histone acetylation", "setting": "H3 histone (Lys9); 2 μM (IC50)", "value": "45 to 120", "unit": "min"}, {"measurement": "time to appearance of acetylated histone", "setting": "H3 histone (Lys9); 20 μM (10×IC50)", "value": 30, "unit": "min"}, {"measurement": "acetylation of H3 histone in Lys9 position", "setting": "H3 histone (Lys9); Western blot (FIG. 5)", "value": "rapidly acetylated"}, {"measurement": "pIC50", "setting": "[9]", "value": 6.00}]}
